From patent US9920073B2, “Compositions useful for inhibiting HIV-1 infection and methods using same” (Drexel University, priority 2013, dated 2018) come the findings set out here.

Like-named read-outs stand apart in the source and are kept apart here.

Series [1] has as its system HIV-1HxBc2. The experiment in a line: microbe, parasite or virus in culture. The series is classed as cell-based.
Series [2] relates to HIV-1 98US_MSC5016 (subtype C). Put plainly: HIV-1 replication assay in primary human PBMCs, isolate 98US_MSC5016. The series is classed as cell-based.
The subject of series [3] is HIV-2 CDC310319. The experiment in a line: Replication assay in primary human PBMCs, HIV-2 isolate. The class given is cell-based.
Series [4] deals with HIV-1 91US004 (subtype B). Put plainly: HIV-1 replication assay in primary human PBMCs, isolate 91US004. The class given is cell-based.
In series [5] the test system is HIV-1JR-CSF. The experiment in a line: microbe, parasite or virus in culture. The series is classed as cell-based. To be noted: Human immunodeficiency virus 1, read-out: IC50 JR-CSF.
In series [6] the test system is HIV-1 99UG_A07412M1 (subtype D). The experiment in a line: HIV-1 replication assay in primary human PBMCs, isolate 99UG_A07412M1. The series is classed as cell-based.
Series [7] in a line: in vitro. The series is classed as cell-based. To be noted: human. The procedure:
Moreover, this assay was performed using healthy, primary cells to gain further insight into potential toxicities of the compound towards natural target cells. Additionally, as a key issue in the development of novel HIV drugs is their ability to inhibit the replication of genetically diverse isolates (especially isolates from the most globally prevalent subtypes A, B, C, and D), it was chosen to assess the potency of SC26 to inhibit the replication of isolates from subtypes A, B, C, and D in primary human peripheral blood mononuclear cells (PBMCs). Concomitantly, toxicity of SC26 to the PBMCs was assessed using an MTT assay. As can be observed from the IC50 values, the potency of SC26 against different isolates ranges quite dramatically, most likely reflecting differences in the binding site between subtypes.

In series [8] the test system is HIV-1 92UG037 (subtype A). Put plainly: HIV-1 replication assay in primary human PBMCs, isolate 92UG037. The class given is cell-based.
The test system of series [9] is HIV-1 94US_3393IN (subtype B). Put plainly: HIV-1 replication assay in primary human PBMCs, isolate 94US_3393IN.
The mark [10] stands for this setting: Human immunodeficiency virus 1, PBMC, human PBMCs.

As a reminder, the IC50 is the concentration that gives 50% inhibition. For orientation: CC50 means the concentration at which the toxic effect on the cells reaches its halfway point. A higher CC50 goes with better tolerance by the cells. Consider `COc1cnc(-n2cnc(C)n2)c2[nH]cc(C(=O)C(=O)N3CC4CN(C(=O)C5=CCCCC5)CC4C3)c12` (stereo not drawn) [SC26, 1-(5-(cyclohex-1-ene-1-carbonyl)hexahydropyrrolo[3,4-c]pyrrol-2(1H)-yl)-2-(4-methoxy-7-(3-methyl-1H-1,2,4-triazol-1-yl)-1H-pyrrolo[2,3-c]pyridin-3-yl)ethane-1,2-dione], for which the IC50 in [1] (Human immunodeficiency virus 1) is 0.6 ± 0.01 nM; in [1] (Human immunodeficiency virus 1, read-out: IC50 HxBc2), 0.6 ± 0.08 nM; in [2] (setting [10]), 3900 ± 800 nM; in series [3] (Human immunodeficiency virus 2, PBMC, HIV-2 CDC310319, human PBMCs) it was more than 100000 nM; in [4] (setting [10]), 195 ± 12 nM; in series [5], 2 ± 0.1 nM. The figures for the IC50 in [6] (setting [10]) and in series [8] (setting [10]) were 490 ± 60 nM and 25200 ± 6900 nM, respectively. Moreover, the “Antiviral index (TC50/IC50)” value in series [2] is on record as more than 25.6; in series [4], more than 513; in series [6], more than 204; in [8] it was more than 3.97; in series [9] it was >166,666. For the same compound, the “effect on the replication of an HIV-2 isolate” value in [3] (human PBMCs, in words) is listed as “no effect”. Moreover, the half-maximal cytotoxic concentration (CC50) at 7 days in series [7] was more than 100000 nM.
